Article PMC9214608 (RSC Advances, 2022)
Read-outs that look alike come from different tables or passages of the source.

Tests used:
[1] = molecular target: SARS-CoV-2 main protease (M^pro or 3CL^pro) (Severe acute respiratory syndrome coronavirus 2, UniProt P0DTD1); test: biochemical
MERS-CoV 3CL^pro = conditions: cited from earlier work
[2] = In vitro SARS-COV-2 M^pro IC50, FRET-based assay, mean ± SD

SMILES | IC50 [1, 2] [µM] | further results
C=C(C)C(C=C[C@@H](C)[C@H]1CC[C@H]2[C@@H]3CC=C4CC(O)CC[C@]4(C)[C@H]3CC[C@]12C)CC (stereo partly drawn) [Compound 1, 24-β-ethyl-cholesta-5(6),22(23),25(26)-triene-3-ol] | – | IC50 ([1]; In vitro SARS-COV-2 M^pro IC50): 12.5 ± 0.64 µM
C[C@H]1[C@H](C)CC[C@]2(C)CC[C@]3(C)C(=CC[C@@H]4[C@@]5(C)CC[C@H](O)C(C)(C)[C@@H]5CC[C@]43C)[C@H]12 [Compound 2, α-amyrin] | 4.18 ± 0.21 | –
CCCCC/C=C\C/C=C\CCCCCCCC(=O)O [Compound 3, linoleic acid] | 20.7 ± 1.05 | –
COc1cc(C2CC(=O)c3c(O)cc(O)c(OC)c3O2)ccc1O (stereo not drawn) [Compound 8, 5,7,4′-trihydroxy-8,3′-dimethoxy flavanone] | 27.9 ± 1.42 | –
COc1c(O)cc2c(c1O)C(=O)CC(c1ccc(O)cc1)O2 (stereo not drawn) [Compound 9, 5,7,4′-trihydroxy-6-methoxy flavanone] | 11.8 ± 0.6 | –
COc1cc(-c2cc(=O)c3c(O)cc(OC)c(OC)c3o2)ccc1O [Compound 10, 4′,5-dihydroxy-3′,7,8-trimethoxyflavone] | 12.8 ± 0.65 | –
COc1cc(-c2cc(=O)c3c(O)cc(O)c(OC)c3o2)cc(OC)c1OC [Compound 11, 5,7-dihydroxy-3′,4′,5′,8-tetramethoxy flavone] | 5.07 ± 0.26 | –
COc1c(O)cc2c(c1O)C(=O)CC(c1cc(O)cc(O)c1)O2 (stereo not drawn) [Compound 13, 3′,5′,5,7-tetrahydroxy-6-methoxyflavanone] | 5.56 ± 0.28 | –
O=c1cc(-c2ccc(O)c(O)c2)oc2c([C@@H]3O[C@H](CO)[C@@H](O)[C@H](O)[C@H]3O)c(O)cc(O)c12 [Compound 16, orientin] | 27.5 ± 1.4 | –
O=c1cc(-c2ccc(O)c(O[C@@H]3O[C@H](CO)[C@@H](O)[C@H](O)[C@H]3O)c2)oc2cc(O)cc(O)c12 [Compound 17, luteolin-3′-O-β-D-glucoside] | – | IC50 ([1]; read-out: In vitro SARS-COV-2 M^pro IC50): 10.1 ± 0.52 µM
COc1cc(O)cc(O)c1C(=O)/C=C/c1ccc(O)cc1 [Helichrysetin] | – | Inhibition of MERS-CoV 3CL^pro (MERS-CoV 3CL^pro): able to inhibit MERS-CoV 3CL^pro
Cc1cccc(C)c1OCC(=O)N[C@@H](Cc1ccccc1)[C@@H](O)C[C@H](Cc1ccccc1)NC(=O)[C@H](C(C)C)N1CCCNC1=O [Lopinavir, reference compound] | 0.225 ± 0.01 | –
